{"source": "patent US6469040B2", "about": "“Method of using cyclooxygenase-2 inhibitors in the treatment and prevention of neoplasia” (G.D. Searle & Co., priority 1997, dated 2002)", "key": {"[1]": {"tested_on": "Lewis Lung carcinoma cells", "conditions": "CTX 50 mg/kg injected on days 5, 7 and 9", "procedure": "Lewis Lung carcinoma cells (2.5×10^6 cells) prepared from a brei carried in C57BL/6 mice were injected subcutaneously into the hind legs of mice. […] Cyclophosphamide (CTX) was injected to mice on days 5,7 and 9 after the implantation of the tumor at a dose of 50 mg/kg. Tumor volume was determined during the study. The % inhibition was calculated as above."}, "LNCaP": {"tested_on": "LNCaP", "assay": "LNCaP human prostate cancer cell tumors in nude mice", "assay_type": "in vivo", "conditions": "6 mg/kg/day in drinking water", "excerpt": "(§1) Two human prostate cancer cell lines (PC-3 and LNCaP) were obtained (ATCC) to determine the efficacy of cyclooxygenase-2 inhibitors to inhibit tumor growth in a therapeutic model. In addition, the LNCaP cell line secretes prostate serum antigen (PSA) when grown in nude mice.\nPSA level was reduced to approximately 50% as judged by western blotting."}, "PC-3 cells": {"tested_on": "PC-3 cells", "assay": "PC-3 human prostate cancer cell tumors in nude mice", "assay_type": "in vivo", "conditions": "20 mg/kg/day in water from day 28, after 45 days", "procedure": "as §1\nPC-3 cells (10^6 cells/0.2 ml of 30% matrigel) in RPMI 1640 medium was injected on the back of nude mice. […] After 45 days, PGE2 and TXB2 were measured."}}}
{"smiles": "O=P1(N(CCCl)CCCl)NCCCO1", "note": "(centres unmarked) [CTX, Cyclophosphamide]", "values": [{"measurement": "Tumor Volume (Day 22) % Inhibition", "setting": "[1]", "value": 57, "unit": "%"}]}
{"smiles": "NS(=O)(=O)c1ccc(-n2nc(C(F)F)cc2-c2ccc(Cl)cc2)cc1", "note": "[COX-2 inhibitor, 4-[5-(4-chlorophenyl)-3-(difluoromethyl)-1H-pyrazol-1-yl]benzenesulfonamide]", "values": [{"measurement": "inhibition of growth of the tumor", "setting": "LNCaP; day 58", "value": 55, "unit": "%"}, {"measurement": "PSA level reduced to", "setting": "LNCaP; judged by western blotting", "value": "approximately 50%"}, {"measurement": "PGE2 level reduction", "setting": "PC-3 cells", "value": "80-90%"}, {"measurement": "TXB2 level reduction", "setting": "PC-3 cells", "value": "80-90%"}]}
